Reference: PubChem BioAssay AID540252 (Sanford-Burnham Center for Chemical Genomics, 2011)
Calls of active or inactive are those of the source. No rule for the calls is given here.

Biological target: glucose-6-phosphate dehydrogenase-6-phosphogluconolactonase (Plasmodium falciparum 3D7)
Experiment: inhibition of P. falciparum G6PD activity – biochemical, end-point NADPH detection, orthogonal assay, dose response (AID 540252)
Conditions: purified PfG6PD enzyme, NADPH direct detection

Row | SMILES | IC50
1 | CCOc1ccc(NC(=O)Cn2sc3nc(C)cc(C)c3c2=O)cc1 | > 80 µM (inactive)
2 | CCn1c(=O)n(CC)c2cc(N3CCCC3)c(NC(=O)c3cccc(C)c3)cc21 | > 80 µM (inactive)
3 | COc1ccc2nc3cc(Cl)ccc3c(Nc3ccc(O)c(CN4CCN(C)CC4)c3)c2c1 | > 80 µM (inactive)
4 | Nc1c(O)cccc1C(=O)O | > 80 µM (inactive)
5 | CCOC(=O)c1c(C)n(-c2ccc(C)cc2)c2c(C(C(C)=O)C(=O)O)c(Br)c(O)c(O)c12 (stereo unspecified) | > 80 µM (inactive)
6 | Cc1ccc(CNc2ccc(O)cc2)cc1 | > 80 µM (inactive)
7 | COc1cc(N=c2ssnc2Cl)cc(OC)c1OC | 54 µM
8 | Cn1c(=O)[nH]c(=O)c2c1[nH]c(=S)n2CCCc1ccccc1 | 66.1 µM
9 | O=C(O)C(Cc1ccccc1)N1C(=O)C=CC1=O (stereo unspecified) | 51 µM
10 | CN(C)c1ccc(/C=C/c2ccc3c4ccccc4ccc3[n+]2-c2ccccc2)cc1 | > 80 µM (inactive)
11 | O=C(CN1CCN(c2ccc(O)cc2)CC1)Nc1cc(S(=O)(=O)N2CCOCC2)ccc1Cl | > 80 µM (inactive)
12 | COc1ccccc1NS(=O)(=O)c1cc(NC(=O)c2ccc(Cl)nc2)ccc1N1CCCC1 | > 80 µM (inactive)
13 | Cc1nnc(N/N=C\c2ccc(-c3cccc(C(=O)O)c3)o2)n1N | > 80 µM (inactive)
14 | CN(C)c1cccc2c1c(NC(=O)c1ccc(Cl)cc1)nn2C | > 80 µM (inactive)
15 | CCC(=O)OCCNc1cc(Sc2nc3ccccc3s2)c2nonc2c1[N+](=O)[O-] | > 80 µM (inactive)
16 | CC1=CC(C)(C)Nc2ccc(OC(=O)CN3C(=O)c4cccc5cccc(c45)C3=O)cc21 | > 80 µM (inactive)
17 | CCOc1ccc(S(=O)(=O)Nc2cc(SCC(=O)O)c(O)c3ccccc23)cc1 | > 80 µM (inactive)
18 | CCCCCCCCSC1=CC(=O)C(OC)=C(OC)C1=O | > 80 µM (inactive)
19 | Cc1cc(C)c2sc(NC(=O)C3=COCCO3)nc2c1 | > 80 µM (inactive)
20 | COc1cccc(/C=N/NC(=O)c2c(C)nc3ccc(Br)cn23)c1 | > 80 µM (inactive)
21 | CC(CNc1ccccc1O)C(=O)O (stereo unspecified) | > 80 µM (inactive)
22 | CCC(C)(C)c1nnc(NC(=O)C2CCN(C(=O)c3ccco3)CC2)s1 | > 80 µM (inactive)
23 | COc1cc(CNc2ccc(N3CCCC3)cc2)ccc1OCc1ccccc1F | > 80 µM (inactive)
24 | O=C1OC(c2ccc3ccccc3c2O)(c2ccc3ccccc3c2O)c2ccccc21 | > 80 µM (inactive)
25 | CN(C)C=Nc1ccc2nc3c(cc2c1)[nH]c1ccccc13 | > 80 µM (inactive)
26 | Cc1ccc(S(=O)(=O)NNc2ccccc2)cc1 | 37.9 µM

Row | SMILES | IC50
27 | O=c1c2ccccc2sn1-c1ccc(Cl)cc1 | 17.2 µM
28 | COc1ccc(CCn2c(NN=C3CCCCC3)nc3c2c(=O)[nH]c(=O)n3C)cc1 | > 80 µM (inactive)
29 | Clc1ccc2nc(-c3ccc4c(c3)OCO4)cn2c1 | > 80 µM (inactive)
30 | CC1CCc2c(nc3sc4c(c3c2N)CCCC4)C1 (stereo unspecified) | > 80 µM (inactive)
31 | O=C(Sc1n[nH]c(=O)[nH]c1=O)c1ccccc1 | 23.3 µM
32 | O=C(Nc1ccc(N2CCN(C(=O)c3ccco3)CC2)c(Cl)c1)c1cc2ccccc2o1 | > 80 µM (inactive)
33 | CCC(C)N(CCNC(=O)c1ccc2c(c1)NC(=O)c1ccccc1S2)C1CCCCC1 (stereo unspecified) | 6.49 µM
34 | Cc1ccc(S(=O)(=O)N(C)C)cc1NC(=O)CSc1nc2ncc(Cl)cc2[nH]1 | > 80 µM (inactive)
35 | ClC(Cl)(c1nnnn1-c1ccccc1)c1nnnn1-c1ccccc1 | 56.2 µM
36 | CC1(C)Cc2c(sc3nc4n(-c5ccccc5)c(=O)c(CCC(=O)O)nn4c(=O)c23)CO1 | 8.84 µM
37 | NS(=O)(=O)c1ccc(-c2ccc(C=C3C(=O)NC(=O)NC3=O)o2)cc1 | > 80 µM (inactive)
38 | COc1cccc(C(=O)Nc2nnc(S(=O)(=O)N(C)Cc3ccccc3)s2)c1 | > 80 µM (inactive)
39 | CN1CCc2cccc3c2[C@@H]1Cc1ccc(O)c(O)c1-3 | > 80 µM (inactive)
40 | Cc1ccc(/C=C/C(=O)NCc2ccc(S(N)(=O)=O)cc2)o1 | > 80 µM (inactive)
41 | O=S(=O)(Nc1ccccc1F)c1cccc(NC(=S)NCCN2CCOCC2)c1 | 71.2 µM
42 | Cc1c(C(=O)N(Cc2ccccc2Cl)C2CCS(=O)(=O)C2)oc2ccccc12 (stereo unspecified) | > 80 µM (inactive)
43 | CC1=C(C)CS(=O)N(S(=O)(=O)c2ccc(Cl)cc2)C1 (stereo unspecified) | > 80 µM (inactive)
44 | O=C(OCC(=O)c1ccc([N+](=O)[O-])cc1)/C(=C\c1ccc(Cl)cc1)NC(=O)c1ccccc1 | > 80 µM (inactive)
45 | CN1CCc2cc(O)cc3c2[C@H]1Cc1ccc(O)c(O)c1-3 | > 80 µM (inactive)
46 | Cc1cccc(C(=O)Nc2nnc(S(=O)(=O)N3CCCCCC3)s2)c1 | > 80 µM (inactive)
47 | COc1cc(NCc2ccccc2O)c2ncccc2c1 | > 80 µM (inactive)
48 | Cn1c(-c2sccc2OCc2cccc(C(F)(F)F)c2)n[nH]c1=S | > 80 µM (inactive)
49 | Cc1ccc(-n2sc3cc(F)ccc3c2=O)c(C)c1 | 12.2 µM
50 | CCn1c2ccccc2c2cc(/C=N/n3cn[nH]c3=S)ccc21 | > 80 µM (inactive)
51 | Cc1ccc(NS(=O)(=O)c2ccccc2Cl)c2c1CC(C)(C)O2 | > 80 µM (inactive)
